Experimental data reported in ChEMBL document CHEMBL1833895, “Synthesis and biological activity of desmethoxy analogues of coruscanone A” (Bioorg Med Chem Lett, 2011).

What was measured:
Candida albicans [1] = assay: Antifungal activity against Candida albicans ATCC 44859 after 48 hrs by microdilution method; format: functional; settings: ATCC 44859, 48 h
Candida albicans [2] = assay: Antifungal activity against Candida albicans ATCC 90028 after 24 hrs by microdilution method; format: functional; settings: ATCC 90028, 24 h
Candida albicans [3] = assay: Antifungal activity against Candida albicans ATCC 90028 after 48 hrs by microdilution method; format: functional; settings: ATCC 90028, 48 h
Candida parapsilosis [4] = assay: Antifungal activity against Candida parapsilosis ATCC 22019 after 24 hrs by microdilution method; format: functional; settings: Lodderomyces parapsilosis, ATCC 22019, 24 h
Candida parapsilosis [5] = assay: Antifungal activity against Candida parapsilosis ATCC 22019 after 48 hrs by microdilution method; format: functional; settings: Lodderomyces parapsilosis, ATCC 22019, 48 h
Pichia kudriavzevii [6] = assay: Antifungal activity against Candida krusei ATCC 6258 after 24 hrs by microdilution method; format: functional; settings: ATCC 6258, 24 h
Pichia kudriavzevii [7] = assay: Antifungal activity against Candida krusei ATCC 6258 after 48 hrs by microdilution method; format: functional; settings: ATCC 6258, 48 h
Pichia kudriavzevii [8] = assay: Antifungal activity against Candida krusei E28 after 24 hrs by microdilution method; format: functional; settings: E28, 24 h
Pichia kudriavzevii [9] = assay: Antifungal activity against Candida krusei E28 after 48 hrs by microdilution method; format: functional; settings: E28, 48 h
Candida tropicalis [10] = assay: Antifungal activity against Candida tropicalis 156 after 24 hrs by microdilution method; format: functional; settings: Candida tropicalis, 156, 24 h
Candida tropicalis [11] = assay: Antifungal activity against Candida tropicalis 156 after 48 hrs by microdilution method; format: functional; settings: Candida tropicalis, 156, 48 h
Nakaseomyces glabratus [12] = assay: Antifungal activity against Candida glabrata 20/I after 24 hrs by microdilution method; format: functional
Nakaseomyces glabratus [13] = assay: Antifungal activity against Candida glabrata 20/I after 48 hrs by microdilution method; format: functional
Clavispora lusitaniae [14] = assay: Antifungal activity against Candida lusitaniae 2446/I after 24 hrs by microdilution method; format: functional
Clavispora lusitaniae [15] = assay: Antifungal activity against Candida lusitaniae 2446/I after 48 hrs by microdilution method; format: functional
Trichosporon asahii [16] = assay: Antifungal activity against Trichosporon asahii 1188 after 24 hrs by microdilution method; format: functional; settings: Trichosporon asahii, 1188, 24 h
Trichosporon asahii [17] = assay: Antifungal activity against Trichosporon asahii 1188 after 48 hrs by microdilution method; format: functional; settings: Trichosporon asahii, 1188, 48 h
Aspergillus fumigatus [18] = assay: Antifungal activity against Aspergillus fumigatus 231 after 24 hrs by microdilution method; format: functional, organism-based; settings: Aspergillus fumigatus, 231, 24 h
Aspergillus fumigatus [19] = assay: Antifungal activity against Aspergillus fumigatus 231 after 48 hrs by microdilution method; format: functional, organism-based; settings: Aspergillus fumigatus, 231, 48 h
Lichtheimia corymbifera [20] = assay: Antifungal activity against Absidia corymbifera 272 after 24 hrs by microdilution method; format: functional, organism-based; settings: Lichtheimia corymbifera, 272, 24 h
Lichtheimia corymbifera [21] = assay: Antifungal activity against Absidia corymbifera 272 after 48 hrs by microdilution method; format: functional, organism-based; settings: Lichtheimia corymbifera, 272, 48 h
Candida albicans [22] = assay: Antifungal activity against Candida albicans ATCC 44859 after 24 hrs by microdilution method; format: functional; settings: ATCC 44859, 24 h
[23] = system: Trichophyton mentagrophytes; assay: Antifungal activity against Trichophyton mentagrophytes 445 after 72 hrs by microdilution method; format: functional, organism-based; settings: Trichophyton mentagrophytes, 445, 72 h
[24] = system: Trichophyton mentagrophytes; assay: Antifungal activity against Trichophyton mentagrophytes 445 after 120 hrs by microdilution method; format: functional, organism-based; settings: Trichophyton mentagrophytes, 445, 120 h
L1210 [25] = assay: Cytostatic activity against mouse L1210 cells at 10 umol/L after 72 hrs by XTT assay; format: ADME, cell-based; settings: l1210, 72 h, 10 µM
HL-60 [26] = assay: Cytostatic activity against human HL60 cells at 10 umol/L after 72 hrs by XTT assay; format: ADME, cell-based; settings: hl-60, 72 h, 10 µM
[27] = Cytostatic activity against human HeLaS3 cells after 48 hrs by XTT assay; format: ADME, cell-based; settings: HeLa S3, 48 h
CCRF-CEM [28] = assay: Cytostatic activity against human CCRF-CEM cells at 10 umol/L after 72 hrs by XTT assay; format: ADME, cell-based; settings: 10 µM
HT-29 = assay: Cytostatic activity against human HT-29 cells at 10 umol/L after 72 hrs by XTT assay; format: ADME, cell-based; settings: ht-29, 72 h, 10 µM
[29] = Cytostatic activity against human COLO201 cells at 10 umol/L after 72 hrs by XTT assay; format: ADME, cell-based; settings: colo 201, 72 h, 10 µM
CCRF-CEM [30] = assay: Cytostatic activity against human CCRF-CEM cells after 72 hrs by XTT assay; format: ADME, cell-based
[31] = Cytostatic activity against human COLO201 cells after 72 hrs by XTT assay; format: ADME, cell-based; settings: COLO 201, 72 h
[32] = Cytostatic activity against human HeLaS3 cells at 10 umol/L after 48 hrs by XTT assay; format: ADME, cell-based; settings: hela s3, 48 h, 10 µM
L1210 [33] = assay: Cytostatic activity against mouse L1210 cells after 72 hrs by XTT assay; format: ADME, cell-based; settings: L1210, 72 h
HL-60 [34] = assay: Cytostatic activity against human HL60 cells after 72 hrs by XTT assay; format: ADME, cell-based; settings: HL-60, 72 h

Cc1ccc(/C=C/C=C2C(=O)C=CC2=O)cc1
IC80 (Candida albicans [1]): 7.81 µM | IC80 (Candida albicans [2]): 7.81 µM | IC80 (Candida albicans [3]): 7.81 µM | IC80 (Candida parapsilosis [4]): 7.81 µM | IC80 (Candida parapsilosis [5]): 31.2 µM | IC80 (Pichia kudriavzevii [6]): 7.81 µM | IC80 (Pichia kudriavzevii [7]): 15.6 µM | IC80 (Pichia kudriavzevii [8]): 7.81 µM | IC80 (Pichia kudriavzevii [9]): 15.6 µM | IC80 (Candida tropicalis [10]): 7.81 µM | IC80 (Candida tropicalis [11]): 7.81 µM | IC80 (Nakaseomyces glabratus [12]): 31.2 µM | IC80 (Nakaseomyces glabratus [13]): 31.2 µM | IC80 (Clavispora lusitaniae [14]): 7.81 µM | IC80 (Clavispora lusitaniae [15]): 15.6 µM | IC80 (Trichosporon asahii [16]): 31.2 µM | IC80 (Trichosporon asahii [17]): > 125 µM | IC80 (Aspergillus fumigatus [18]): 62.5 µM | IC80 (Aspergillus fumigatus [19]): > 125 µM | IC80 (Lichtheimia corymbifera [20]): > 125 µM | IC80 (Lichtheimia corymbifera [21]): > 125 µM | IC80 (Candida albicans [22]): 3.9 µM | IC80 [23]: 125 µM | IC50 [24]: > 125 µM | Activity (L1210 [25]): Non-toxic | Activity (HL-60 [26]): Non-toxic | IC50 [27]: 7.3 µM | Activity (CCRF-CEM [28]): Non-toxic | Activity (HT-29): Non-toxic | Activity [29]: Non-toxic

O=C1C=CC(=O)C1=Cc1ccc2ccccc2c1
IC80 (Candida albicans [1]): 15.6 µM | IC80 (Candida albicans [2]): 15.6 µM | IC80 (Candida albicans [3]): 15.6 µM | IC80 (Candida parapsilosis [4]): 15.6 µM | IC80 (Candida parapsilosis [5]): 15.6 µM | IC80 (Pichia kudriavzevii [6]): 15.6 µM | IC80 (Pichia kudriavzevii [7]): 31.2 µM | IC80 (Pichia kudriavzevii [8]): 31.2 µM | IC80 (Pichia kudriavzevii [9]): 31.2 µM | IC80 (Candida tropicalis [10]): 31.2 µM | IC80 (Candida tropicalis [11]): 31.2 µM | IC80 (Nakaseomyces glabratus [12]): 31.2 µM | IC80 (Nakaseomyces glabratus [13]): 31.2 µM | IC80 (Clavispora lusitaniae [14]): 15.6 µM | IC80 (Clavispora lusitaniae [15]): 15.6 µM | IC80 (Trichosporon asahii [16]): 15.6 µM | IC80 (Trichosporon asahii [17]): 62.5 µM | IC80 (Aspergillus fumigatus [18]): 15.6 µM | IC80 (Aspergillus fumigatus [19]): 31.2 µM | IC80 (Lichtheimia corymbifera [20]): 125 µM | IC80 (Lichtheimia corymbifera [21]): > 125 µM | IC80 (Candida albicans [22]): 15.6 µM | IC80 [23]: 7.81 µM | IC50 [24]: 15.6 µM | Activity (L1210 [25]): Non-toxic | Activity (HL-60 [26]): Non-toxic | IC50 [27]: 13.5 µM | IC50 (CCRF-CEM [30]): 3.7 µM | Activity (HT-29): Non-toxic | IC50 [31]: 2.4 µM

CN(C)c1ccc(C=C2C(=O)C=CC2=O)cc1
IC80 (Candida albicans [1]): 31.2 µM | IC80 (Candida albicans [2]): 31.2 µM | IC80 (Candida albicans [3]): 62.5 µM | IC80 (Candida parapsilosis [4]): 3.9 µM | IC80 (Candida parapsilosis [5]): 7.81 µM | IC80 (Pichia kudriavzevii [6]): 7.81 µM | IC80 (Pichia kudriavzevii [7]): 7.81 µM | IC80 (Pichia kudriavzevii [8]): 7.81 µM | IC80 (Pichia kudriavzevii [9]): 7.81 µM | IC80 (Candida tropicalis [10]): 62.5 µM | IC80 (Candida tropicalis [11]): > 125 µM | IC80 (Nakaseomyces glabratus [12]): 62.5 µM | IC80 (Nakaseomyces glabratus [13]): > 125 µM | IC80 (Clavispora lusitaniae [14]): 7.81 µM | IC80 (Clavispora lusitaniae [15]): 31.2 µM | IC80 (Trichosporon asahii [16]): 7.81 µM | IC80 (Trichosporon asahii [17]): 15.6 µM | IC80 (Aspergillus fumigatus [18]): 15.6 µM | IC80 (Aspergillus fumigatus [19]): 31.2 µM | IC80 (Lichtheimia corymbifera [20]): > 125 µM | IC80 (Lichtheimia corymbifera [21]): > 125 µM | IC80 (Candida albicans [22]): 31.2 µM | IC80 [23]: 0.98 µM | IC50 [24]: 0.98 µM | Activity (L1210 [25]): Non-toxic | Activity (HL-60 [26]): Non-toxic | Activity [32]: Non-toxic | IC50 (CCRF-CEM [30]): 4.3 µM | Activity (HT-29): Non-toxic | IC50 [31]: 1.3 µM

COC(/C=C/c1ccccc1)=C1\C(=O)C=C(C)C1=O [CORUSCANONE A]
IC80 (Candida albicans [1]): 3.91 µM | IC80 (Pichia kudriavzevii [8]): 125 µM | IC80 (Pichia kudriavzevii [9]): 250 µM | IC80 (Candida tropicalis [10]): 3.91 µM | IC80 (Candida tropicalis [11]): 7.1 µM | IC80 (Nakaseomyces glabratus [12]): 125 µM | IC80 (Nakaseomyces glabratus [13]): 125 µM | IC80 (Trichosporon asahii [16]): 0.98 µM | IC80 (Trichosporon asahii [17]): 7.81 µM | IC80 (Aspergillus fumigatus [18]): 31.2 µM | IC80 (Aspergillus fumigatus [19]): 250 µM | IC80 (Lichtheimia corymbifera [20]): 31.2 µM | IC80 (Lichtheimia corymbifera [21]): 250 µM | IC80 (Candida albicans [22]): 0.98 µM | IC80 [23]: 3.91 µM | IC50 [24]: 7.81 µM | IC50 (L1210 [33]): 3.8 µM | IC50 (HL-60 [34]): 4.5 µM | IC50 (CCRF-CEM [30]): 3.6 µM
